Data reported in patent US5703094A, “Quinolone- and naphthyridonecarboxylic acid derivatives” (Bayer Aktiengesellschaft, priority 1995, dated 1997).
Values after ≈ are worked out from the molar mass of the structure shown.

Legend:
E. coli Neumann = test: minimum inhibitory concentration, series dilution method on Iso-Sensitest agar; assay type: cell-based; details: Escherichia coli, 37° C., about 20 hours
Method: (§1) Tables 9 and 10 show the minimum inhibitory concentrations (MIC values), as a measure of the antibacterial activity, and the ID50 values, as a measure of the interactions with mammalian DNA of a substance, both for compounds according to the invention and for reference compounds from the prior art (EP 520 240).
(§2) The minimum inhibitory concentrations (MIC) were determined by a series dilution method on Iso-Sensitest agar (Oxoid). For each test substance, a series of agar plates each comprising concentrations of the active compound decreasing by double dilution in each case was prepared. The agar plates were inoculated with a multipoint inoculator (Denley). Overnight cultures of the pathogens which had been diluted beforehand such that each inoculation point comprised about 10^4 colony-forming particles were used for the inoculation. The inoculated agar plates were incubated at 37° C. and the germ growth was read off after about 20 hours. The MIC value (μg/ml) indicates the lowest active compound concentration at which no growth was detectable with the naked eye.

Ps. aeruginosa Walter = test: as above; assay type: cell-based; details: Pseudomonas aeruginosa, 37° C., about 20 hours
Method: as §1, §2

Staph. aureus 133 = test: as above; assay type: cell-based; details: Staphylococcus aureus, 37° C., about 20 hours
Method: as §1, §2

Staph. aureus ICB 25701 = test: as above; assay type: cell-based; details: Staphylococcus aureus, ICB25701, 37° C., about 20 hours
Method: as §1, §2

[1] = inhibition of DNA synthesis in CHO-KI cells (interactions with mammalian DNA), fluorophotometric; assay type: cell-based, Chinese hamster; details: hamster, cho-k1 cells, measure of interactions with mammalian DNA, read-out: ID50 (concentration at which DNA synthesis is inhibited by 50%)
Excerpt: as §1
The ID50 is understood as meaning the concentration of a substance at which DNA synthesis in cells from ovaries of the Chinese hamster (CHO-KI) is inhibited by 50%. This value is determined after incubation of the corresponding substances in decreasing dilution stages over defined periods of time. For this, the DNA synthesis in CHO-KI cells is determined in comparison with controls by means of fluorophotometric methods.

Work on NC1C=CCC2CN(c3c(F)cc4c(=O)c(C(=O)O)cn(C5CC5)c4c3Cl)CC12 (centres unmarked) [Example 18 A, 7(4-amino-1,3,3a4,7,7a-hexahydro-isoindol-2-yl)-8-chloro-1-cyclopropyl-6-luoro-1,4-dihydro-4-oxo-3-quinolinecarboxylic acid, reference compound] yielded an MIC (E. coli Neumann) of at most 0.015 µg/mL, an MIC (Ps. aeruginosa Walter) of 0.25 µg/mL (≈ 0.598 µM) and an MIC (Staph. aureus 133) of at most 0.015 µg/mL. The MIC (Staph. aureus ICB 25701) was at most 0.015 µg/mL and the IC50 [1] was 0.06 µg/mL (≈ 0.144 µM).
N[C@@H]1CCC=C2CN(c3c(F)cc4c(=O)c(C(=O)O)cn(C5CC5)c4c3F)C[C@@H]21 (racemic) [Example 1, 7-[(3aRS,4RS)-4-amino-2,3,3a,4,5,6-hexahydro-1H-isoindol-2-yl]-1-cyclopropyl-6,8-difluoro-1,4-dihydro-4-oxo-3-quinolinecarboxylic acid] gave an MIC (E. coli Neumann) of at most 0.015 µg/mL, an MIC (Ps. aeruginosa Walter) of 0.125 µg/mL (≈ 0.311 µM) and an MIC (Staph. aureus 133) of at most 0.015 µg/mL. For the same compound, the MIC (Staph. aureus ICB 25701) was at most 0.015 µg/mL and the IC50 [1] was 4 µg/mL (≈ 9.96 µM).
In the case of N[C@@H]1CCC=C2CN(c3c(F)cc4c(=O)c(C(=O)O)cn(C5CC5)c4c3Cl)C[C@@H]21 (racemic) [Example 3, 7-[(3aRS,4RS)-4-amino-2,3,3a,4,5,6-hexahydro-1H-isoindol-2-yl]-8-chloro-1-cyclopropyl-6-fluoro-1,4-dihydro-4-oxo-3-quinolinecarboxylic acid], the MIC (E. coli Neumann) is reported as at most 0.015 µg/mL, the MIC (Ps. aeruginosa Walter) is reported as 0.5 µg/mL (≈ 1.2 µM) and the MIC (Staph. aureus 133) is reported as at most 0.015 µg/mL. For the same compound, the MIC (Staph. aureus ICB 25701) was at most 0.015 µg/mL and the IC50 [1] was 0.1 µg/mL (≈ 0.239 µM).
In the case of NC1C=CCC2CN(c3cc4c(cc3F)c(=O)c(C(=O)O)cn4C3CC3)CC12 (centres unmarked) [Example 19, 7(4-amino-1,3,3a,4,7,7a-hexahydro-isoindol-2-yl)-1-cyclopropyl-6-fluoro-14-dihydro-4-oxo-3-quinolinecarboxylic acid, reference compound], the MIC (E. coli Neumann) is reported as at most 0.015 µg/mL, the MIC (Ps. aeruginosa Walter) is reported as 1 µg/mL (≈ 2.61 µM) and the MIC (Staph. aureus 133) is reported as at most 0.015 µg/mL. It also gave an MIC (Staph. aureus ICB 25701) of 1 µg/mL (≈ 2.61 µM) and an IC50 [1] of 1 µg/mL (≈ 2.61 µM).
N[C@@H]1CCC=C2CN(c3c(F)cc4c(=O)c(C(=O)O)cn([C@@H]5C[C@@H]5F)c4c3F)C[C@@H]21 (relative stereo) [Example 4, 7-[(3aRS,4RS)-4-amino-2,3,3a,4,5,6-hexahydro-1H-isoindol-2-yl]-6,8-difluoro-1-(cis-2-fluorocyclopropyl)-1,4-dihydro-4-oxo-3-quinolinecarboxylic acid] gave an MIC (E. coli Neumann) of at most 0.015 µg/mL, an MIC (Ps. aeruginosa Walter) of 0.25 µg/mL (≈ 0.596 µM) and an MIC (Staph. aureus 133) of at most 0.015 µg/mL. The MIC (Staph. aureus ICB 25701) was 0.03 µg/mL (≈ 0.0715 µM) and the IC50 [1] was 2 µg/mL (≈ 4.77 µM).
With N[C@@H]1CCC=C2CN(c3cc4c(cc3F)c(=O)c(C(=O)O)cn4C3CC3)C[C@@H]21 (racemic) [Example 2, 7-[(3aRS,4RS)-4-amino-2,3,3a,4,5,6-hexahydro-1H-isoindol-2-yl]-1-cyclopropyl-6-fluoro-1,4-dihydro-4-oxo-3-quinolinecarboxylic acid] the MIC (E. coli Neumann) was at most 0.015 µg/mL, the MIC (Ps. aeruginosa Walter) was 1 µg/mL (≈ 2.61 µM) and the MIC (Staph. aureus 133) was at most 0.015 µg/mL. For the same compound, the MIC (Staph. aureus ICB 25701) was 0.125 µg/mL (≈ 0.326 µM) and the IC50 [1] was 2 µg/mL (≈ 5.22 µM).
For NC1C=CCC2CN(c3c(F)cc4c(=O)c(C(=O)O)cn(C5CC5)c4c3F)CC12 (centres unmarked) [Example 17 B, 7(4-amino-1,3,3a,4,7,7a-hexahydro-isoindol-2-yl)-1-cyclopropyl-6,8-difluoo-1,4-dihydro-4-oxo-3-quinolinecarboxylic acid, reference compound], the MIC (E. coli Neumann) was at most 0.015 µg/mL, the MIC (Ps. aeruginosa Walter) was 0.25 µg/mL (≈ 0.623 µM) and the MIC (Staph. aureus 133) was at most 0.015 µg/mL. It also gave an MIC (Staph. aureus ICB 25701) of 0.03 µg/mL (≈ 0.0747 µM) and an IC50 [1] of 0.01 µg/mL (≈ 0.0249 µM).
